From patent publication US8048869B2, “Pharmaceutical composition for use in hormone replacement therapy” (Pantarhei Bioscience B.V., priority 2001, dated 2011)

How the values were obtained:
immature rat uterus = details: subcutaneously administered; cited from earlier work
ovariectomized rats = test: Vaginal cornification bioassay in ovariectomized rats, 7 days, sc or po; format: in vivo, rat
Text: Uterine weight increase in the rat is more commonly used as a measure of estrogenicity. […] In the early 1920s it was discovered that follicular fluid from the pig ovary contained a factor(s) that caused cornification/keratinization of the vaginal epithelium in the rat (Allen and Doisy, 1923, JAMA, 81, 819-821; Allen and Doisy, 1924, Am. J. Physiol., 69, 577-588). The so-called vaginal cornification response in rats subsequently provided a bioassay for testing estrogenicity. Vaginal epithelial cornification/keratinization in ovariectomized rats can be produced only by compounds considered to be true estrogens (Jones et al, 1973, Fert. Steril. 24, 284-291). […] Adult intact female CD rats were ovariectomized to induce estrogen deficiency. […] Castrate vaginal smears are indicative that complete ovariectomy was achieved. Treatment commenced following completion of the 7 days of smearing (day 0=first day of dosing). Animals were dosed, once daily for 7 consecutive days. Daily vaginal lavages continued to be obtained for 7 days after dosing was initiated in order to detect vaginal cornification, as an indication of an estrogenic response. A drop of vaginal washings was placed on a glass slide and examined by light microscopy to detect the presence or absence of cornified epithelial cells. Vaginal lavages were obtained prior to dosing on days 0-6 and prior to necropsy on day 7. […]

human ERα = molecular target: T1, human ERα (Homo sapiens, UniProt P03372); test: Competitive steroid binding assay, ERα; details: from Ki values for human ERα and ERβ
T1 sequence (P03372 1-595): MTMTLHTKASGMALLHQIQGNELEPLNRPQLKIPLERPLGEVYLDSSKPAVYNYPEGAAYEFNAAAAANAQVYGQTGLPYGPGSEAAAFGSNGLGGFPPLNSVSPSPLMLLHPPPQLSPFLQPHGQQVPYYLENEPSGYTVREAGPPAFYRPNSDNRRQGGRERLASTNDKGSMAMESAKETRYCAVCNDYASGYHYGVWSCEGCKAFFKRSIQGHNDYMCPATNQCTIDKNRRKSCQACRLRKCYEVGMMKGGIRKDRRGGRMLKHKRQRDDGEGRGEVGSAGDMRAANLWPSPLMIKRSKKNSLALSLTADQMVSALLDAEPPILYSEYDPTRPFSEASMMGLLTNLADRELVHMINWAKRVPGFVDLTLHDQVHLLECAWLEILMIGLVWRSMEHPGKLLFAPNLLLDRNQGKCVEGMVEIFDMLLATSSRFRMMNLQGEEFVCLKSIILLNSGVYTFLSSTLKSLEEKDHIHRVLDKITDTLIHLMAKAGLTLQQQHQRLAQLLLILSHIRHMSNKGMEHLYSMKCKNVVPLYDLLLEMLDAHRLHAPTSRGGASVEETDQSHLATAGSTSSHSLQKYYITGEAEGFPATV

[1] = molecular target: T2, rat uterine cytosol estrogen receptor (Rattus norvegicus, UniProt P06211); details: cited from earlier work
T2 construct: host or cells: rat uterus (cytosol and nuclear fractions), Martucci et al. 1976
T2 sequence (P06211 1-600): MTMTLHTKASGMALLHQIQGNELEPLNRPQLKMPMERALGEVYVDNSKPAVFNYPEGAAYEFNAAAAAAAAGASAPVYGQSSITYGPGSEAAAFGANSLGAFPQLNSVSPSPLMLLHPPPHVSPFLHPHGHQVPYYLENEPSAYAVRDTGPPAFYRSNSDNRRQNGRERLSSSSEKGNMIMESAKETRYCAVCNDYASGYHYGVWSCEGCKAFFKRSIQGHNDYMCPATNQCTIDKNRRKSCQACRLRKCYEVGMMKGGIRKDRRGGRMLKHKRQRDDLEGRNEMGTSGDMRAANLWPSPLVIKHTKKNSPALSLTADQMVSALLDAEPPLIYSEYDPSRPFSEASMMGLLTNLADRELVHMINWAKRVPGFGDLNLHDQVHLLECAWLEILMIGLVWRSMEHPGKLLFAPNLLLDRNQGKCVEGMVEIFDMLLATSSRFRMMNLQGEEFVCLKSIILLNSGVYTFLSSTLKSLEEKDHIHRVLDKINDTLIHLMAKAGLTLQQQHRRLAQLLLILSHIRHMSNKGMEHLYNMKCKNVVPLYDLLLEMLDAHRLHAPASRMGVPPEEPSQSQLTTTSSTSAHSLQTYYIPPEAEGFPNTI

[2] = molecular target: T3, rat uterine nuclear estrogen receptor (Rattus norvegicus, UniProt P06211); details: cited from earlier work
T3 construct: host or cells: rat uterus (cytosol and nuclear fractions), Martucci et al. 1976
T3 sequence (P06211 1-600): T2 sequence (P06211 1-600)

[3] = tritium labeled, intravenously, two adult women; cited from earlier work
[4] = test system: human breast cancer cells (MCF-7); details: cited from earlier work
[5] = test system: estrogen receptors in the human endometrium; details: cited from earlier work

Compound: C[C@]12CC[C@@H]3c4ccc(O)cc4CC[C@H]3[C@@H]1[C@@H](O)[C@@H](O)[C@@H]2O [E4, 1,3,5 (10)-estratrien-3,15α,16α,17β-tetrol]
- uterotrophic activity (immature rat uterus): very weak uterotrophic activity
- Number of Rats Exhibiting Estrogenic Response/Number of Rats Treated (ovariectomized rats; 1.0 mg/kg/day, Day 7, 1 mg/kg/day): all rats
- Number of Rats Exhibiting Estrogenic Response/Number of Rats Treated (ovariectomized rats; 3.0 mg/kg/day, Day 7, 3 mg/kg/day): all rats
- Relative ERα/ERβ preference (human ERα): 400%
- relative binding affinity, 17β-estradiol = 100% [1]: 0.5%
- relative binding affinity, 17β-estradiol = 100% [2]: 0.3%
- excretion and metabolism [3]: rapidly and completely excreted in urine as the glucosiduronate
- agonistic potency in in vitro cell proliferation, relative to 17β-estradiol [4]: 2%
- relative binding constant to the estrogen receptor compared to 17β-estradiol (100%) ([5]; Tseng et al. 1976): 6.25%
- Relative binding to estrogen receptors, relative to 17β-estradiol ([5]; Tseng et al. 1978): 1.5%
